Reference: patent publication US6326371A, “Pyrudyl and pyrimidylpiperazine derivatives” (Pharmacia Aktiebolag, priority 1992, dated 2001)
Where a name gives a salt, the structure may show the parent alone.

Target: T1, 5-HT2 receptors (Rattus norvegicus, UniProt P14842)
T1 construct: essentially as described by Leysen et al. (Mol. Pharmacol. 21, 301-14, 1982) using; from tissue
Assay: Affinity to 5-HT2 receptors (Test 1, 3H-ketanserin binding)
Conditions: 3H-ketanserin as ligand
Description: Test 1. Affinity to 5-HT2 receptors.
The binding assay is carried out essentially as described by Leysen et al. (Mol. Pharmacol. 21, 301-14, 1982) using ^3 H-ketanserin as ligand.

T1 sequence (P14842 whole entry): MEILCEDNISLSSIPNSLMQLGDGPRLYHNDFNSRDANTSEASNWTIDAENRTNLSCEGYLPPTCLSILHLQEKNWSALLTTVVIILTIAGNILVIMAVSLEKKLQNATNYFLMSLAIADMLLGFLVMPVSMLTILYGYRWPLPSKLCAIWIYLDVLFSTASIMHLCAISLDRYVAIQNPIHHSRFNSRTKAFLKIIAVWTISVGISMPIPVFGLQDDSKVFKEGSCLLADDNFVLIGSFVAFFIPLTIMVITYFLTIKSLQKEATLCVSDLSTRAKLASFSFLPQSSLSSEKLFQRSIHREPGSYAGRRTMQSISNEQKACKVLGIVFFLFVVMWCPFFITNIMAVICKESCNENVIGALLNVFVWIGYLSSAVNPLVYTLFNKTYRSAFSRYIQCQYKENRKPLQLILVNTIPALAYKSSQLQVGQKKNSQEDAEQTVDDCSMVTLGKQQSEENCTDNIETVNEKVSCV

## Fc1ccc(C(OCCN2CCN(c3ccccn3)CC2)c2ccc(F)cc2)cc1 [3:1, 4-{2-[(4.4'-Difluorobenzhydryl)oxyl]ethyl}-1-(2-pyridyl)piperazine dihydrochloride]
  Ki: 11 nM

## Fc1ccc(N(CCCN2CCN(c3ccccn3)CC2)c2ccc(F)cc2)cc1 [1:1, 1-{3-[Bis-(4-fluorophenyl)amino]propyl}-4-(2-pyridyl)-piperazine-dihydrochloride]
  Ki: 18 nM
